Reference: patent publication EP1738740A2, “Use of benzyl-1,3-thiazolidine-2,4-dione compounds for favouring and/or inducing and/or stimulating the pigmentation of keratinic materials and/or for limiting their depigmentation and/or their bleaching” (L'Oreal, priority 2005, dated 2007)

Molecular target: T1, 15-PGDH de type 1 (Homo sapiens, UniProt P15428)
T1 sequence (P15428 1-266): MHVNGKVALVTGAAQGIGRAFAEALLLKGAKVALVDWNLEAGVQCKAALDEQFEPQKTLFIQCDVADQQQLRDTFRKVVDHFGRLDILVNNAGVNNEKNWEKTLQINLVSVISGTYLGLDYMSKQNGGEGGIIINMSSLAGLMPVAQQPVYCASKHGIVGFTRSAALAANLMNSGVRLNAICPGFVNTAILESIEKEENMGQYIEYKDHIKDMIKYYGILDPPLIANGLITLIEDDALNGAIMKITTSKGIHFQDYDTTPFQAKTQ
Experiment: Test on 15-PGDH type 1: spectrophotometric enzyme inhibition, NADH formation at 340 nm with PGE2 and β-NAD
Type: biochemical
Details: concentration reducing the enzymatic activity of 15-PGDH by 50%; Tris 100 mM pH 7,4, 37°C, 50 µM Prostaglandine E2, 1,5 mM β-NAD
Experimental: L'enzyme 15-PGDH est obtenue comme décrit dans la demande FR 02/05067 déposée au nom de L'Oréal, en suspension dans un milieu adapté à une concentration de 0,3 mg/mL puis bloquée à - 80°C. Pour les besoins du test, cette suspension est décongelée et stockée dans de la glace.
Par ailleurs on prépare un tampon Tris 100 mM, pH = 7,4, contenant 0,1 mM de dithiothréitol (D5545, Sigma-Aldrich, L'isle D'Abeau Chesne, BP 701, 38297, Saint Quentin Fallavier), 1,5 mM de β-NAD (N6522, Sigma-Aldrich, L'isle D'Abeau Chesne, BP 701, 38297, Saint Quentin Fallavier), 50 µM de Prostaglandine E2 (P4172, Sigma-Aldrich, L'isle D'Abeau Chesne, BP 701, 38297, Saint Quentin Fallavier).
Dans la cuve d'un spectrophotomètre (Perkin-Elmer, Lambda 2) thermostaté à 37°C, dont la longueur d'onde de mesure est réglée à 340 nm, sont introduits 0,965 ml de ce tampon (préalablement porté à 37°C). 0,035 mL de suspension enzymatique à 37°C sont introduits dans la cuve concomitamment à l'enregistrement (correspondant à une augmentation de la densité optique à 340 nm). La vitesse maximale de réaction est relevée. […]

- IC50: 2200 nM
SMILES: O=C1NC(=O)C(Cc2ccccc2Oc2ccc(Cl)cc2)S1 (stereo not shown) [compound 1]
